Consider one molecule from patent US20100261630A1, “ANTIMICROBIAL HAND WASH FORMULATIONS” (priority 2006, published 2010).

This data set is described as follows: Patch irritancy test on test subject's skin. The note with it: control diluted to 0.2 percent of the original volume into deionized water.

Molecules are shown by their SMILES.

Regarding `CCCCCCCCCCCCOS(=O)(=O)[O-].[Na+]` [Sodium Lauryl Sulfate], the Classification result is given as “Experimental Cumulative” and the “Irritancy Score” value is recorded as 14918.5.
